{"source": "ChEMBL document CHEMBL4270550", "about": "“Synthesis of pyrazolo[3,4-d]pyrimidin-4(5H)-ones tethered to 1,2,3-triazoles and their evaluation as potential anticancer agents” (2018)", "key": {"C6 [1]": {"tested_on": "C6", "test": "Antiproliferative activity against rat C6 cells at 10 uM after 48 hrs by MTT assay relative to control", "assay_type": "functional"}, "U-87 MG [2]": {"tested_on": "U-87 MG", "test": "Antiproliferative activity against human U87 cells at 10 uM after 48 hrs by MTT assay relative to control", "assay_type": "functional, U-87MG ATCC"}, "U-87 MG [3]": {"tested_on": "U-87 MG", "test": "Cell cycle arrest in human U87 cells assessed as accumulation of cells at G0/G1 phase at 50 uM after 48 hrs by propidium iodide staining-based flow cytometric analysis (reference value: 71.7%)", "assay_type": "functional, U-87MG ATCC"}, "U-87 MG [4]": {"tested_on": "U-87 MG", "test": "Cell cycle arrest in human U87 cells assessed as accumulation of cells at G2/M phase at 10 uM after 48 hrs by propidium iodide staining-based flow cytometric analysis (reference value: 19.4%)", "assay_type": "functional, U-87MG ATCC"}, "U-87 MG [5]": {"tested_on": "U-87 MG", "test": "Induction of apoptosis in human U87 cells assessed as increase in caspase3 expression by Western blot analysis", "assay_type": "functional, cell-based", "conditions": "U-87MG ATCC"}, "U-87 MG [6]": {"tested_on": "U-87 MG", "test": "Cell cycle arrest in human U87 cells assessed as accumulation of cells at S phase at 25 uM after 48 hrs by propidium iodide staining-based flow cytometric analysis (reference value: 8.95%)", "assay_type": "functional, U-87MG ATCC"}, "C6 [7]": {"tested_on": "C6", "test": "Antiproliferative activity against rat C6 cells after 48 hrs by MTT assay", "assay_type": "functional, cell-based"}, "U-87 MG [8]": {"tested_on": "U-87 MG", "test": "Induction of apoptosis in human U87 cells assessed as increase in p53 levels by Western blot analysis", "assay_type": "functional, cell-based", "conditions": "U-87MG ATCC"}, "U-87 MG [9]": {"tested_on": "U-87 MG", "test": "Cell cycle arrest in human U87 cells assessed as accumulation of cells at G0/G1 phase at 10 uM after 48 hrs by propidium iodide staining-based flow cytometric analysis (reference value: 71.7%)", "assay_type": "functional, U-87MG ATCC"}, "U-87 MG [10]": {"tested_on": "U-87 MG", "test": "Cell cycle arrest in human U87 cells assessed as accumulation of cells at G2/M phase at 50 uM after 48 hrs by propidium iodide staining-based flow cytometric analysis (reference value: 19.4%)", "assay_type": "functional, U-87MG ATCC"}, "U-87 MG [11]": {"tested_on": "U-87 MG", "test": "Cell cycle arrest in human U87 cells assessed as accumulation of cells at G0/G1 phase at 25 uM after 48 hrs by propidium iodide staining-based flow cytometric analysis (reference value: 71.7%)", "assay_type": "functional, U-87MG ATCC"}, "U-87 MG [12]": {"tested_on": "U-87 MG", "test": "Cell cycle arrest in human U87 cells assessed as accumulation of cells at S phase at 50 uM after 48 hrs by propidium iodide staining-based flow cytometric analysis (reference value: 8.95%)", "assay_type": "functional, U-87MG ATCC"}, "U-87 MG [13]": {"tested_on": "U-87 MG", "test": "Induction of apoptosis in human U87 cells after 48 hrs by propidium iodide staining-based flow cytometric analysis", "assay_type": "functional, cell-based", "conditions": "U-87MG ATCC"}, "U-87 MG [14]": {"tested_on": "U-87 MG", "test": "Cell cycle arrest in human U87 cells assessed as accumulation of cells at G2/M phase at 25 uM after 48 hrs by propidium iodide staining-based flow cytometric analysis (reference value: 19.4%)", "assay_type": "functional, U-87MG ATCC"}, "U-87 MG [15]": {"tested_on": "U-87 MG", "test": "Induction of apoptosis in human U87 cells assessed as increase in cleaved PARP levels by Western blot analysis", "assay_type": "functional, cell-based", "conditions": "U-87MG ATCC"}, "U-87 MG [16]": {"tested_on": "U-87 MG", "test": "Antiproliferative activity against human U87 cells after 48 hrs by MTT assay", "assay_type": "functional, cell-based", "conditions": "U-87MG ATCC"}, "U-87 MG [17]": {"tested_on": "U-87 MG", "test": "Cell cycle arrest in human U87 cells assessed as accumulation of cells at S phase at 10 uM after 48 hrs by propidium iodide staining-based flow cytometric analysis (reference value: 8.95%)", "assay_type": "functional, U-87MG ATCC"}}, "data": [{"smiles": "Cc1ccc(-n2cc(Cn3cnc4c(cnn4-c4ccccc4)c3=O)nn2)cc1", "values": [{"measurement": "Activity", "setting": "C6 [1]", "result": 16.87, "unit": "%"}, {"measurement": "Activity", "setting": "U-87 MG [2]", "result": 41.62, "unit": "%"}]}, {"smiles": "O=c1c2cnn(-c3ccc(Cl)cc3)c2ncn1Cc1cn(-c2ccccc2)nn1", "values": [{"measurement": "Activity", "setting": "U-87 MG [2]", "result": 40.98, "unit": "%"}]}, {"smiles": "COc1ccccc1-n1cc(Cn2cnc3c(cnn3-c3ccc(Cl)cc3)c2=O)nn1", "values": [{"measurement": "Activity", "setting": "C6 [1]", "result": 16.37, "unit": "%"}, {"measurement": "Activity", "setting": "U-87 MG [2]", "result": 32.98, "unit": "%"}]}, {"smiles": "O=c1c2cnn(-c3ccc(Cl)cc3)c2ncn1Cc1cn(-c2cccc(Cl)c2)nn1", "values": [{"measurement": "Activity", "setting": "C6 [1]", "result": 9.55, "unit": "%"}, {"measurement": "Activity", "setting": "U-87 MG [2]", "result": 47.29, "unit": "%"}]}, {"smiles": "COc1ccccc1-n1cc(Cn2cnc3c(cnn3-c3ccccc3)c2=O)nn1", "values": [{"measurement": "Activity", "setting": "C6 [1]", "result": 4.91, "unit": "%"}, {"measurement": "Activity", "setting": "U-87 MG [2]", "result": 15.7, "unit": "%"}]}, {"smiles": "O=c1c2cnn(-c3ccccc3)c2ncn1Cc1cn(-c2cccc(Cl)c2)nn1", "values": [{"measurement": "Activity", "setting": "U-87 MG [3]", "result": 62.6, "unit": "%"}, {"measurement": "Activity", "setting": "U-87 MG [4]", "result": 12.52, "unit": "%"}, {"measurement": "Activity", "setting": "U-87 MG [5]", "result": "Dose-dependent effect"}, {"measurement": "Activity", "setting": "U-87 MG [6]", "result": 17.13, "unit": "%"}, {"measurement": "Activity", "setting": "C6 [7]", "result": "Dose-dependent effect"}, {"measurement": "Activity", "setting": "C6 [1]", "result": 17.87, "unit": "%"}, {"measurement": "Activity", "setting": "U-87 MG [8]", "result": "Dose-dependent effect"}, {"measurement": "Activity", "setting": "U-87 MG [9]", "result": 73.3, "unit": "%"}, {"measurement": "Activity", "setting": "U-87 MG [10]", "result": 0.08, "unit": "%"}, {"measurement": "Activity", "setting": "U-87 MG [11]", "result": 80.8, "unit": "%"}, {"measurement": "Activity", "setting": "U-87 MG [2]", "result": 47.69, "unit": "%"}, {"measurement": "Activity", "setting": "U-87 MG [12]", "result": 37.4, "unit": "%"}, {"measurement": "Activity", "setting": "U-87 MG [13]", "result": "Dose-dependent effect"}, {"measurement": "Activity", "setting": "U-87 MG [14]", "result": 2.03, "unit": "%"}, {"measurement": "Activity", "setting": "U-87 MG [15]", "result": "Dose-dependent effect"}, {"measurement": "Activity", "setting": "U-87 MG [16]", "result": "Dose-dependent effect"}, {"measurement": "Activity", "setting": "U-87 MG [17]", "result": 14.18, "unit": "%"}]}, {"smiles": "Cc1ccccc1-n1cc(Cn2cnc3c(cnn3-c3ccccc3)c2=O)nn1", "values": [{"measurement": "Activity", "setting": "C6 [1]", "result": 13.64, "unit": "%"}, {"measurement": "Activity", "setting": "U-87 MG [2]", "result": 21.32, "unit": "%"}]}, {"smiles": "O=c1c2cnn(-c3ccccc3)c2ncn1Cc1cn(-c2ccccc2F)nn1", "values": [{"measurement": "Activity", "setting": "U-87 MG [2]", "result": 46.35, "unit": "%"}]}, {"smiles": "O=c1c2cnn(-c3ccccc3)c2ncn1Cc1cn(-c2ccccc2)nn1", "values": [{"measurement": "Activity", "setting": "C6 [1]", "result": 34.1, "unit": "%"}, {"measurement": "Activity", "setting": "U-87 MG [2]", "result": 52.34, "unit": "%"}]}, {"smiles": "O=c1c2cnn(-c3ccc(Cl)cc3)c2ncn1Cc1cn(-c2ccccc2F)nn1", "values": [{"measurement": "Activity", "setting": "U-87 MG [2]", "result": 21.31, "unit": "%"}]}, {"smiles": "Cc1cccc(-n2cc(Cn3cnc4c(cnn4-c4ccccc4)c3=O)nn2)c1C", "values": [{"measurement": "Activity", "setting": "U-87 MG [2]", "result": 40.6, "unit": "%"}]}, {"smiles": "Cc1cccc(-n2cc(Cn3cnc4c(cnn4-c4ccc(Cl)cc4)c3=O)nn2)c1C", "values": [{"measurement": "Activity", "setting": "C6 [1]", "result": 35.91, "unit": "%"}, {"measurement": "Activity", "setting": "U-87 MG [2]", "result": 54.42, "unit": "%"}]}]}
